Values of other authors as cited in patent publication US20200383964A1, “MITOCHONDRIA TARGETING, MPTP REGULATION, AND THE REDUCTION OF MITOCHONDRIAL REACTIVE SPECIES” (priority 2017, published 2020).

Test system: mitochondrial permeability transition pore (MPTP)

CC(=O)C=O [Methylglyoxal, methylglyoxal]
suppression of permeability transition (incubation with isolated mitochondria, covalent binding to the MPTP): complete suppression | time to suppression of the permeability transition (isolated mitochondria): ≤ 5 min
